# Measurements taken from US20250221996A1, “HETEROCYCLIC COMPOUNDS, COMPOSITIONS THEREOF, AND METHODS OF TREATMENT THEREWITH” (BeiGene, Ltd., priority 2022, published 2025).
# System: pERK1/2(THR202/TYR204) level in AsPC-1 cells
# Assay: pERK assay (HTRF) in AsPC-1 cell line
# Assay type: cell-based
# Settings: 2 h compound treatment
# Protocol: AsPC-1 cell line was used in this study. Cells were maintained in RPMI-1640 supplemented with 10% fetal bovine serum (Thermo Fisher), 50 units/mL penicillin and streptomycin (Thermo Fisher) and kept at 37° C. in a humidified atmosphere of 5% CO2 in air. Cells were reinstated from frozen stocks that were laid down within 30 passages from the original cells purchased. 30000 cells per well were seeded into a 96-well plate and incubated overnight. Cells were treated with a 10-point dilution series. The final compound concentration is from 0 to 10 μM. After 2 h compound treatment, cells were lysed, and the pERK1/2(THR202/TYR204) level in the cell lysates was detected by HTRF kit (Cisbio). In brief, a total of 16 μL of cell lysate from each well of a 96-well plate was transferred to a 384-well white assay plate. Lysate from each well was incubated with 2 μL of Eu3+-cryptate (donor) labeled anti-phospho-ERK1/2 and 2 μL of D2 (acceptor) labeled anti-phospho-ERK1/2 antibodies (Cisbio) overnight in dark at room temperature. When donor and acceptor are in close proximity, excitation of the donor with laser triggers a Fluorescence Resonance Energy Transfer (FRET) towards the acceptor, which in turn fluoresces at 655 nm wavelength. FRET signals were measured using a PHERAstar FSX reader (BMG Labtech). IC50 determination was performed by fitting the curve of percent inhibition versus the log of the inhibitor concentration using Dotmatics.
row,SMILES,IC50 [nM]
1,"N#Cc1c(N)sc2c(F)ccc(-c3c(C(F)(F)F)cc4c(N5CC6CCC(C5)N6)nc(OCC5(C#N)CCOCC5)nc4c3F)c12 (single isomer, unassigned) [Example 22-Isomer 2, 4-(((7-(2-amino-3-cyano-7-fluorobenzo[b]thiophen-4-yl)-4-(3,8-diazabicyclo[3.2.1]octan-3-yl)-8-fluoro-6-(trifluoromethyl)quinazolin-2-yl)oxy)methyl)tetrahydro-2H-pyran-4-carbonitrile]",72

# Same assay, conditions: Homo sapiens, ASPC1, 2 h, 2 h compound treatment
row,SMILES,IC50 [nM]
1,"N#Cc1c(N)sc2c(F)ccc(-c3c(C(F)(F)F)cc4c(N5CC6CCC(C5)N6)nc(OCC5(C(F)F)COC5)nc4c3F)c12 (single isomer, unassigned) [Example 48-Isomer 2, 4-(4-(3,8-diazabicyclo[3.2.1]octan-3-yl)-2-((3-(difluoromethyl)oxetan-3-yl)methoxy)-8-fluoro-6-(trifluoromethyl)quinazolin-7-yl)-2-amino-7-fluoro benzo[b]thiophene-3-carbonitrile]",65
2,"COC1(COc2nc(N3CC4CCC(C3)N4)c3cc(C(F)(F)F)c(-c4ccc(F)c5sc(N)c(C#N)c45)c(F)c3n2)CCOC1 (centres unmarked) [Example 3-Mixture 1, 4-(4-(3,8-diazabicyclo[3.2.1]octan-3-yl)-8-fluoro-2-((3-methoxytetra hydrofuran-3-yl)methoxy)-6-(trifluoromethyl)quinazolin-7-yl)-2-amino-7-fluoro benzo[b]thiophene-3-carbonitrile]",1730
3,"N#Cc1c(N)sc2c(F)ccc(-c3c(C(F)(F)F)cc4c(N5CC6CCC(C5)N6)nc(OCC5(O)CCOC5)nc4c3F)c12 (centres unmarked) [Example 6, 4-(4-(3,8-diazabicyclo[3.2.1]octan-3-yl)-8-fluoro-2-((3-hydroxytetrahydrofuran-3-yl)methoxy)-6-(trifluoromethyl)quinazolin-7-yl)-2-amino-7-fluoro benzo[b]thiophene-3-carbonitrile]",187
4,"N#Cc1c(N)sc2c(F)ccc(-c3c(C(F)(F)F)cc4c(N5CC6CCC(C5)N6)nc(OCC56CCC(C5)OC6)nc4c3F)c12 (centres unmarked) [Example 7, 4-(2-((2-oxabicyclo[2.2.1]heptan-4-yl)methoxy)-4-(3,8-diazabicyclo[3.2.1]octan-3-yl)-8-fluoro-6-(trifluoromethyl)quinazolin-7-yl)-2-amino-7-fluorobenzo[b]thiophene-3-carbonitrile]",112
5,"COC(=O)N1CC(C)(COc2nc(N3CC4CCC(C3)N4)c3cc(C(F)(F)F)c(-c4ccc(F)c5sc(N)c(C#N)c45)c(F)c3n2)C1 [Example 8, methyl 3-(((7-(2-amino-3-cyano-7-fluorobenzo[h]thiophen-4-yl)-4-(3,8-diazabicyclo[3.2.1]octan-3-yl)-8-fluoro-6-(trifluoromethyl)quinazolin-2-yl)oxy)methyl)-3-methylazetidine-1-carboxylate]",159
6,"CCC12CC(COc3nc(N4CC5CCC(C4)N5)c4cc(C(F)(F)F)c(-c5ccc(F)c6sc(N)c(C#N)c56)c(F)c4n3)(CO1)C2 [Example 12, 4-(4-(3,8-diazabicyclo[3.2.1]octan-3-yl)-2-((1-ethyl-2-oxabicyclo [2.1.1]hexan-4-yl)methoxy)-8-fluoro-6-(trifluoromethyl)quinazolin-7-yl)-2-amino-7-fluorobenzo[h]thiophene-3-carbonitrile]",1730
7,"CC(=O)N1CC(C)(COc2nc(N3CC4CCC(C3)N4)c3cc(C(F)(F)F)c(-c4ccc(F)c5sc(N)c(C#N)c45)c(F)c3n2)C1 [Example 13, 4-(2-((1-acetyl-3-methylazetidin-3-yl)methoxy)-4-(3,8-diazabicyclo[3.2.1]octan-3-yl)-8-fluoro-6-(trifluoromethyl)quinazolin-7-yl)-2-amino-7-fluorobenzo[b]thiophene-3-carbonitrile]",146
8,"CC12CC(COc3nc(N4CC5CCC(C4)N5)c4ccc(-c5ccc(F)c6sc(N)c(C#N)c56)c(F)c4n3)(CO1)C2 [Example 15, 4-(4-(3,8-diazabicyclo[3.2.1]octan-3-yl)-8-fluoro-2-((1-methyl-2-oxabicyclo[2.1.1]hexan-4-yl)methoxy)quinazolin-7-yl)-2-amino-7-fluorobenzo[b] thiophene-3-carbonitrile]",7140
9,"CC12CC(COc3nc(N4C5CNCC4COC5)c4cc(C(F)(F)F)c(-c5ccc(F)c6sc(N)c(C#N)c56)c(F)c4n3)(CO1)C2 [Example 16, 4-(4-(3-oxa-7,9-diazabicyclo[3.3.1]nonan-9-yl)-8-fluoro-2-((1-methyl-2-oxabicyclo[2.1.1]hexan-4-yl)methoxy)-6-(trifluoromethyl)quinazolin-7-yl)-2-amino-7-fluorobenzo[b]thiophene-3-carbonitrile]",143
10,CC1(CC#N)CN(c2nc(N3CC4CCC(C3)N4)c3cc(C(F)(F)F)c(-c4ccc(F)c5sc(N)c(C#N)c45)c(F)c3n2)C1 [Example 17],561
11,"CC1(COc2nc(N3CC4CCC(C3)N4)c3cc(C(F)(F)F)c(-c4ccc(F)c5sc(N)c(C#N)c45)c(F)c3n2)COC1 [Example 18, 4-(4 (3,8-diazabicyclo[3.2.1]octan-3-yl)-8-fluoro-2-((3-methyloxetan-3-yl)methoxy)-6-(trifluoromethyl)quinazolin-7-yl)-2-amino-7-fluorobenzo [b]thiophene-3-carbonitrile]",146
12,"N#Cc1c(N)sc2c(F)ccc(-c3c(C(F)(F)F)cc4c(N5CC6CCC(C5)N6)nc(OCC5(O)CCOCC5)nc4c3F)c12 [Example 19, 4-(4-(3,8-diazabicyclo[3.2.1]octan-3-yl)-8-fluoro-2-((4-hydroxytetrahydro-2H-pyran-4-yl)methoxy)-6-(trifluoromethyl)quinazolin-7-yl)-2-amino-7-fluorobenzo[b]thiophene-3-carbonitrile]",326
13,"COC(=O)N1CC(COc2nc(N3CC4CCC(C3)N4)c3cc(C(F)(F)F)c(-c4ccc(F)c5sc(N)c(C#N)c45)c(F)c3n2)(OC)C1 [Example 20, methyl 3-(((7-(2-amino-3-cyano-7-fluorobenzo[b]thiophen-4-yl)-4-(3,8-diazabicyclo[3.2.1]octan-3-yl)-8-fluoro-6-(trifluoromethyl)quinazolin-2-yl)oxy)methyl)-3-methoxyazetidine-1-carboxylate]",188
14,"N#Cc1c(N)sc2c(F)ccc(-c3c(C(F)(F)F)cc4c(N5CC6CCC(C5)N6)nc(OCC56COC(CO)(C5)C6)nc4c3F)c12 [Example 21, 4-(4-(3,8-diazabicyclo[3.2.1]octan-3-yl)-8-fluoro-2-((1-(hydroxymethyl)-2-oxabicyclo[2.1.1]hexan-4-yl)methoxy)-6-(trifluoromethyl)quinazolin-7-yl)-2-amino-7-fluorobenzo[b]thiophene-3-carbonitrile]",760
15,"N#Cc1c(N)sc2c(F)ccc(-c3c(C(F)(F)F)cc4c(N5CC6CCC(C5)N6)nc(OCC5CCOCC5)nc4c3F)c12 [Example 23, 4-(4-(3,8-diazabicyclo[3.2.1]octan-3-yl)-8-fluoro-2-((tetrahydro-2H-pyran-4-yl)methoxy)-6-(trifluoromethyl)quinazolin-7-yl)-2-amino-7-fluorobenzo[b]thiophene-3-carbonitrile]",334
16,"Cn1ccnc1N1CC(COc2nc(N3CC4CCC(C3)N4)c3cc(C(F)(F)F)c(-c4ccc(F)c5sc(N)c(C#N)c45)c(F)c3n2)C1 [Example 24, 4-(4-(3,8-diazabicyclo[3.2.1]octan-3-yl)-8-fluoro-2-((1-(1-methyl-1H-imidazol-2-yl)azetidin-3-yl)methoxy)-6-(trifluoromethyl)quinazolin-7-yl)-2-amino-7-fluorobenzo[b]thiophene-3-carbonitrile]",200
